Inconclusive results and toxic doses are left out.
Test system: L1210 leukemia ip in BDF1 mice, survival T/C
Assay: NCI In Vivo Anticancer Drug Screen. Data for tumor model L1210 Leukemia (intraperitoneal) in B6D2F1 (BDF1) mice
Conditions: endpoint: mean survival time, higher = longer survival
In short: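 In this screen, tumor-bearing mice given compound are compared to those given vehicle, and their survival values are reported as a treated-to-control quotient.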

[1] = dose: 100.0 mg/kg/injection, schedule: Q01DX009 (ip), vehicle: Klucel (hydroxypropylcellulose) (HPC)
[2] = dose: 100.0 mg/kg/injection, schedule: Q04DX003 (ip), vehicle: Klucel (hydroxypropylcellulose) (HPC)
[3] = dose: 200.0 mg/kg/injection, schedule: Q04DX003 (ip), vehicle: Klucel (hydroxypropylcellulose) (HPC)
[4] = dose: 400.0 mg/kg/injection, schedule: Q04DX003 (ip), vehicle: Klucel (hydroxypropylcellulose) (HPC)
[5] = dose: 100.0 mg/kg/injection, schedule: Q01DX001 (ip), vehicle: saline
[6] = dose: 200.0 mg/kg/injection, schedule: Q01DX001 (ip), vehicle: saline
[7] = dose: 100.0 mg/kg/injection, schedule: Q04DX003 (ip), vehicle: saline with Tween-80
[8] = dose: 200.0 mg/kg/injection, schedule: Q04DX003 (ip), vehicle: saline with Tween-80
[9] = dose: 400.0 mg/kg/injection, schedule: Q04DX003 (ip), vehicle: saline with Tween-80
[10] = dose: 15.0 mg/kg/injection, schedule: Q01DX Z (ip), vehicle: carboxymethylcellulose (CMC)

## CN(C)CCCNC1=C(Cl)C(=O)C(NCCCN(C)C)=C(Cl)C1=O
dose: 100.0 mg/kg/injection, schedule: Q04DX003 (ip), vehicle: acetone
  T/C: 89 % of control

## CS(=O)c1cc2c(cc1[N+](=O)[O-])C(=O)c1ccccc1-2 (stereo not given)
dose: 20.0 mg/kg/injection, schedule: Q01DX009 (ip), vehicle: Klucel (hydroxypropylcellulose) (HPC)
  T/C: 107 % of control
dose: 40.0 mg/kg/injection, schedule: Q01DX009 (ip), vehicle: Klucel (hydroxypropylcellulose) (HPC)
  T/C: 117 % of control
dose: 50.0 mg/kg/injection, schedule: Q04DX003 (ip), vehicle: Klucel (hydroxypropylcellulose) (HPC)
  T/C: 97 % of control
[1]
  T/C: 95 % of control
[2]
  T/C: 93 % of control

## Cc1c(Cl)cc(C(C)C)c(O)c1CN1CCOCC1
dose: 222.0 mg/kg/injection, schedule: Q01DX Z (ip), vehicle: methylcellulose (MC)
  T/C: 96 % of control
dose: 333.0 mg/kg/injection, schedule: Q01DX Z (ip), vehicle: methylcellulose (MC)
  T/C: 109 % of control
dose: 500.0 mg/kg/injection, schedule: Q01DX Z (ip), vehicle: methylcellulose (MC)
  T/C: 102 % of control

## CCCCCCCCCCCCC(O)(CC)C(=O)O (stereo not given)
dose: 100.0 mg/kg/injection, schedule: Q04DX002 (ip), vehicle: Klucel (hydroxypropylcellulose) (HPC)
  T/C: 98 % of control
dose: 200.0 mg/kg/injection, schedule: Q04DX002 (ip), vehicle: Klucel (hydroxypropylcellulose) (HPC)
  T/C: 91 % of control
dose: 400.0 mg/kg/injection, schedule: Q04DX002 (ip), vehicle: Klucel (hydroxypropylcellulose) (HPC)
  T/C: 91 % of control

## Nc1cc(S(N)(=O)=O)ccc1Br
dose: 100.0 mg/kg/injection, schedule: Q04DX003 (ip), vehicle: water
  T/C: 95 % of control
dose: 200.0 mg/kg/injection, schedule: Q04DX003 (ip), vehicle: water
  T/C: 97 % of control
dose: 400.0 mg/kg/injection, schedule: Q04DX003 (ip), vehicle: water
  T/C: 92 % of control

## COc1ccc(/C=C/c2cc[n+](C)cc2)cc1
dose: 12.5 mg/kg/injection, schedule: Q04DX003 (ip), vehicle: saline with Tween-80
  T/C: 97 % of control
dose: 25.0 mg/kg/injection, schedule: Q04DX003 (ip), vehicle: saline with Tween-80
  T/C: 94 % of control
dose: 50.0 mg/kg/injection, schedule: Q04DX003 (ip), vehicle: saline with Tween-80
  T/C: 94 % of control

## CCC1C(=O)C=C(C)OC1=O (stereo not given)
dose: 75.0 mg/kg/injection, schedule: Q01DX009 (ip), vehicle: Klucel (hydroxypropylcellulose) (HPC)
  T/C: 107 % of control
dose: 150.0 mg/kg/injection, schedule: Q01DX009 (ip), vehicle: Klucel (hydroxypropylcellulose) (HPC)
  T/C: 101 % of control
dose: 300.0 mg/kg/injection, schedule: Q01DX009 (ip), vehicle: Klucel (hydroxypropylcellulose) (HPC)
  T/C: 86 % of control

## O=C(SCCN1CCCC1)N1c2ccccc2Sc2ccc(Cl)cc21
dose: 75.0 mg/kg/injection, schedule: Q01DX001 (ip), vehicle: carboxymethylcellulose (CMC)
  T/C: 94 % of control
dose: 150.0 mg/kg/injection, schedule: Q01DX001 (ip), vehicle: carboxymethylcellulose (CMC)
  T/C: 94 % of control

## CC(NC(=O)NCCCl)c1cccc2ccccc12 (stereo not given)
[2]
  T/C: 102 % of control
[3]
  T/C: 103 % of control
[4]
  T/C: 95 % of control

## CCOC(=O)CN(C)C(=O)OCC
dose: 50.0 mg/kg/injection, schedule: Q01DX001 (ip), vehicle: saline
  T/C: 104 % of control
[5]
  T/C: 101 % of control
[6]
  T/C: 117 % of control
dose: 400.0 mg/kg/injection, schedule: Q01DX001 (ip), vehicle: saline
  T/C: 101 % of control

## Clc1ccc2c(CBr)ccnc2c1
[5]
  T/C: 98 % of control
[6]
  T/C: 104 % of control

## CCCC(C(=O)O)c1ccccc1C (stereo not given)
dose: 100.0 mg/kg/injection, schedule: Q01DX009 (ip), vehicle: saline with Tween-80
  T/C: 102 % of control
[7]
  T/C: 102 % of control
dose: 200.0 mg/kg/injection, schedule: Q01DX009 (ip), vehicle: saline with Tween-80
  T/C: 98 % of control
[8]
  T/C: 97 % of control
dose: 400.0 mg/kg/injection, schedule: Q01DX009 (ip), vehicle: saline with Tween-80
  T/C: 105 % of control
[9]
  T/C: 107 % of control

## O=C(NCCO)Nc1ccc(Cl)c(Cl)c1
[1]
  T/C: 100 % of control
dose: 200.0 mg/kg/injection, schedule: Q01DX009 (ip), vehicle: Klucel (hydroxypropylcellulose) (HPC)
  T/C: 103 % of control
[3]
  T/C: 101 % of control
dose: 400.0 mg/kg/injection, schedule: Q01DX009 (ip), vehicle: Klucel (hydroxypropylcellulose) (HPC)
  T/C: 101 % of control
[4]
  T/C: 87 % of control

## CCCCCC(CN(C)C)C(=O)/C=C/c1ccc(Cl)cc1 (stereo not given)
dose: 12.5 mg/kg/injection, schedule: Q01DX009 (sc), vehicle: other
  T/C: 100 % of control
dose: 25.0 mg/kg/injection, schedule: Q01DX009 (sc), vehicle: other
  T/C: 100 % of control
dose: 50.0 mg/kg/injection, schedule: Q01DX009 (sc), vehicle: other
  T/C: 93 % of control
dose: 50.0 mg/kg/injection, schedule: Q04DX003 (sc), vehicle: steriod suspending solution
  T/C: 95 % of control
dose: 75.0 mg/kg/injection, schedule: Q01DX009 (sc), vehicle: other
  T/C: 98 % of control
dose: 100.0 mg/kg/injection, schedule: Q01DX001 (sc), vehicle: steriod suspending solution
  T/C: 91 % of control
dose: 115.0 mg/kg/injection, schedule: Q01DX009 (sc), vehicle: other
  T/C: 100 % of control
dose: 200.0 mg/kg/injection, schedule: Q01DX001 (sc), vehicle: steriod suspending solution
  T/C: 116 % of control

## C=C(C)C(=O)OCC1CO1 (stereo not given)
dose: 50.0 mg/kg/injection, schedule: Q01DX Z (ip), vehicle: other
  T/C: 90 % of control
dose: 100.0 mg/kg/injection, schedule: Q01DX Z (ip), vehicle: other
  T/C: 95 % of control
dose: 200.0 mg/kg/injection, schedule: Q01DX Z (ip), vehicle: other
  T/C: 107 % of control

## Cc1ccc([N+](=O)[O-])c(P(=O)(O)O)c1
[7]
  T/C: 100 % of control

## CCOC(=O)CCC(NC(=O)c1ccc(NCc2nnc3nc(N)n4nnnc4c3n2)cc1)C(=O)OCC (stereo not given)
dose: 25.0 mg/kg/injection, schedule: Q01DX001 (ip), vehicle: saline with Tween-80
  T/C: 96 % of control
dose: 50.0 mg/kg/injection, schedule: Q01DX001 (ip), vehicle: saline with Tween-80
  T/C: 109 % of control
dose: 100.0 mg/kg/injection, schedule: Q01DX001 (ip), vehicle: saline with Tween-80
  T/C: 100 % of control

## CCOC(=O)C1(N)CCCC1
[10]
  T/C: 105 % of control
dose: 23.0 mg/kg/injection, schedule: Q01DX Z (ip), vehicle: carboxymethylcellulose (CMC)
  T/C: 108 % of control
dose: 31.3 mg/kg/injection, schedule: Q01DX015 (ip), vehicle: saline
  T/C: 96 % of control
dose: 35.0 mg/kg/injection, schedule: Q01DX Z (ip), vehicle: carboxymethylcellulose (CMC)
  T/C: 117 % of control
dose: 62.5 mg/kg/injection, schedule: Q01DX015 (ip), vehicle: saline
  T/C: 124 % of control
dose: 83.0 mg/kg/injection, schedule: Q01DX Z (ip), vehicle: carboxymethylcellulose (CMC)
  T/C: 122 % of control
dose: 125.0 mg/kg/injection, schedule: Q01DX015 (ip), vehicle: saline
  T/C: 150 % of control
dose: 125.0 mg/kg/injection, schedule: Q01DX Z (ip), vehicle: carboxymethylcellulose (CMC)
  T/C: 122 % of control
dose: 188.0 mg/kg/injection, schedule: Q01DX Z (ip), vehicle: carboxymethylcellulose (CMC)
  T/C: 110 % of control
dose: 250.0 mg/kg/injection, schedule: Q01DX015 (ip), vehicle: saline
  T/C: 157 % of control
dose: 500.0 mg/kg/injection, schedule: Q01DX015 (ip), vehicle: saline
  T/C: 118 % of control

## N/C(=N\N=C\c1ccc2c(c1)OCO2)N/N=C\c1ccc2c(c1)OCO2
[10]
  T/C: 95 % of control
dose: 30.0 mg/kg/injection, schedule: Q01DX Z (ip), vehicle: carboxymethylcellulose (CMC)
  T/C: 101 % of control
dose: 60.0 mg/kg/injection, schedule: Q01DX Z (ip), vehicle: carboxymethylcellulose (CMC)
  T/C: 97 % of control
dose: 120.0 mg/kg/injection, schedule: Q01DX Z (ip), vehicle: carboxymethylcellulose (CMC)
  T/C: 94 % of control
dose: 120.0 mg/kg/injection, schedule: Q01DX Z (oral), vehicle: carboxymethylcellulose (CMC)
  T/C: 95 % of control
dose: 240.0 mg/kg/injection, schedule: Q01DX Z (oral), vehicle: carboxymethylcellulose (CMC)
  T/C: 103 % of control
dose: 480.0 mg/kg/injection, schedule: Q01DX Z (oral), vehicle: carboxymethylcellulose (CMC)
  T/C: 101 % of control
dose: 960.0 mg/kg/injection, schedule: Q01DX Z (oral), vehicle: carboxymethylcellulose (CMC)
  T/C: 97 % of control

## Clc1ccc2nc(C(Cl)(Cl)Cl)[nH]c2c1
[7]
  T/C: 98 % of control
[8]
  T/C: 104 % of control
[9]
  T/C: 95 % of control

Source: PubChem BioAssay AID248 (DTP/NCI, 2004)
